According to patent US20160101177A1, “pH AND LIGHT ACTIVATED ANTI-CANCER DRUGS” (The Board of Trustees of the University of Alabama, priority 2014, published 2016):
Several values for one entry are separate records, joined by “and”; a condition that tells them apart may be missing. Identical values can stand only once.

Tests used:
[1] = system: human cervical carcinoma (HeLa) cells; assay: MTT cell viability assay in HeLa cells with or without 450 nm irradiation; type: cell-based; conditions: for HeLa cell viability, no irradiation: absence of light; for IC50: read-out: IC50 (error)
Protocol: For cell culture, human cervical carcinoma (HeLa) cells were obtained from the ATCC. The cells were cultured at 37° C. in a 5% CO2, humidified atmosphere in Dulbecco's Modified Eagle Medium (DMEM) supplemented with 10% fetal bovine serum, 100 U/mL penicillin, and 100 μg/ml streptomycin (Invitrogen). Assays were accomplished by seeding cells at a density of 5,000 cells/well in a 96-well plate and incubated at 37° C. overnight. Media was exchanged and then cells were treated with either 100 μM [Ru(bpy)2(66′bpy(OH)2)]^2+, [Ru(bpy)2(44′bpy(OH)2)]^2+, or [Ru(bpy)3]^2+ for 48 h. The medium containing compounds was discarded, cells were washed, and fresh Hank's Balanced Salt Solution was added. In the dark, cells were irradiated using a 450 nm light emitting diode (LED) flashlight positioned 4 cm from the plate for 1 h. The salt solution was exchanged with media and cells were allowed to grow for 24 h. Media containing 20 μL of 3-(4,5-dimethylthiazol-2-yl)-[…] bromide (MTT) (5 mg/mL) was added to each well and incubated for an additional 3 h. The medium was removed. After adding 200 μL of DMSO to each well, the optical densities at 570 nm were determined The p-values were calculated from triplicate data sets using KaleidaGraph software.
Upon irradiation the [Ru(bpy)2(66′bpy(OH)2)]^2+ prodrug can be converted into a cytotoxic agent while in a cell. For example, HeLa cells were plated, incubated with [Ru(bpy)2(66′bpy(OH)2)]^2+, irradiated, and an MTT cell viability assay was used to assess cellular viability. […] The average viability dropped to 93+/−6%. The change is not statistically significant with p greater than 0.05. Similar results were obtained when cells were not treated with the agent and only irradiated for one hour. The viability dropped to 88+/−9%. […] When [Ru(bpy)2(66′bpy(OH)2)]^2+ was incubated with HeLa cells and irradiated the viability dropped to 47+/−12%. This is a statistically significant drop with p less than 0.004 and 0.02 for no ruthenium-complex and no irradiation respectively. Further experiments changing the concentration of [Ru(bpy)2(66′bpy(OH)2)]^2+ in HeLa cells under irradiation can allow for measurement of an inhibitory concentration (IC50). The IC50 for anti-cancer activity is given in Table 1, which are consistent with the data in FIG. 3.

[2] = Kinetics of light-induced ligand photo-dissociation monitored by UV/visible spectroscopy; type: physicochemical; conditions: for rate of photodecomposition / ligand loss: pH 7.5 in water
Text: The rate of ligand loss from [Ru(bpy)2(66′bpy(OH)2)]^2+ to give the active anti-cancer agent ([Ru(bpy)2(solvent)2]^2+) can depend greatly on pH and the solvent composition. At pH 5 in aqueous solution, [Ru(bpy)2(66′bpy(OH)2)]^2+ undergoes blue light induced ligand loss which was monitored by UV/visible spectroscopy over one hour (graph (a) in FIG. 8). At this pH, which is below pKa1 and pKa2, the dihydroxybipyridine ligand should be in its native (protonated) state and should correspond to weaker Ru—N bonds (cf. deprotonated ligand), due to a less electron rich ligand as corroborated by crystallographic and computational results described herein. […] This A→B process is consistent with the clean isosbestic point observed, and furthermore, a first or second order process can be ruled out due to non-linear (curved) plots for these rate laws (see supplementary materials).
At this pH, which is above pKa1 and pKa2, the 6,6′-dihydroxybipyridine ligand should be fully deprotonated, which corresponds to stronger Ru—N bonds. Slight fluctuations in the absorbance values can be attributed to noise, and at this pH the rate of photodecomposition appears to be zero. Thus, the deprotonated, more strongly donating ligand appears to block photodecomposition. Thus, this establishes the framework for how a metal-based prodrug can be selectively activated in cancer cells, which have a lower pH as compared to normal cells.
Studies in acetonitrile were done to monitor the process that gave rise to ([Ru(bpy)2(CH3CN)2]^2+) and investigate the influence of solvent on the rates. […] In contrast, upon irradiation with blue light (450 nm), [Ru(bpy)2(66′bpy(OH)2)]^2+ in acetonitrile undergoes decomposition to give [Ru(bpy)2(CH3CN)2)]^2+ and the free ligand, 66′bpy(OH)2 (λmax=343 nm, 421 nm). These products have been prepared independently and their spectra are consistent with those shown for the final result of photodecomposition (graph (c) in FIG. 8). The observed zero order rate constant, kobs=2.6×10^−7 M/s, was determined by fitting an A→B process at 457 nm. The large changes in light absorption show a clean isosbestic point at λ=422 nm and is consistent with an A→B process. Furthermore, the light induced loss of a ligand is consistent with a zero order process that is independent of concentration. The observed rate constant, kobs=2.6(1)×10^−7 M/s, reflects that photodecomposition is nearly complete (87%) in 5 minutes, and it is entirely complete within 20 minutes, graph (c) in FIG. 8. Thus, the reaction proceeds 15 times more quickly in acetonitrile vs. pH 5 aqueous media. This could be attributed to decreased back reaction in acetonitrile, or enhanced stability of the product ligand in acetonitrile since it is better solvated. The product complex is analogous to the likely product of photodecomposition in vivo, namely [Ru(bpy)2(H2O)2)]^2+.

[3] = pH titration by UV/visible absorbance in aqueous buffers (pKa); type: physicochemical; conditions: aqueous buffers pH 1 to 13, 25° C.
Protocol: ^1H-NMR spectra were collected on a Varian 300 MHz Fourier Transform spectrometer in deuterated acetonitrile (CD3CN) Infrared spectra were obtained on a Perkin Elmer Spectrum One FT-IR with Universal ATR sampling accessory. UV-visible absorption spectra were collected on a Scinco S-3100 diode-array spectrophotometer at a resolution of 1 nm. Luminescence data was collected on a Horiba Jobin Yvon Fluoromax 3. pH measurements were performed using a VWR SympHony pH meter, utilizing a three point calibration at pH=4.0, 7.0, and 10.0.
UV/visible absorbance data was collected for [Ru(bpy)2(66′bpy(OH)2)]^2+ in aqueous buffers ranging from pH=1 to pH=13, FIG. 6. The deprotonated form of [Ru(bpy)2(66′bpy(OH)2)]^2+ is red shifted compared to the protonated form of the complex. The pH titration data can show two distinct events that yielded a pKa1=5.26 and pKa2=7.27.

[4] = 100 μM complex for 48 h, untreated non-irradiated cells = 100%
[5] = HeLa cells under irradiation (450 nm, 1 h), MTT

## [Cl][Ru][Cl].c1ccc(-c2ccccn2)nc1.c1ccc(-c2ccccn2)nc1.c1ccc(-c2ccccn2)nc1 [[Ru(bpy)3]^2+, [Ru(bpy)3][Cl]2]
[1]; [4]
  HeLa cell viability, no irradiation: 91+/−4%
[1]; [5]
  IC50: 152 µM

## F[P-](F)(F)(F)(F)F.F[P-](F)(F)(F)(F)F.O.Oc1cccc(-c2cccc(O)n2)n1.[Ru+2].c1ccc(-c2ccccn2)nc1.c1ccc(-c2ccccn2)nc1 [[Ru(bpy)2(66′bpy(OH)2)]^2+, [Ru(bpy)2(66′bpy(OH)2)][PF6]2.H2O]
[1]; 100 μM complex for 48 h, then 450 nm irradiation for 1 h, untreated non-irradiated cells = 100%
  HeLa cell viability, with irradiation: 47+/−12% and 47%
[1]; [5]
  IC50: 88 µM
[2]; 450 nm blue light
  rate in acetonitrile vs. pH 5 aqueous media: 15 times
  rate of photodecomposition / ligand loss: no measurable photodecomposition
[2]; acetonitrile, 450 nm blue light
  time to entirely complete photodecomposition: ≤ 20 min
[2]; acetonitrile, 450 nm blue light, 5 minutes
  extent of photodecomposition: 87%
[2]; acetonitrile, 450 nm blue light, followed at 457 nm
  kobs, zero order rate constant of photodecomposition: 2.6(1)×10^−7 M/s
[2]; pH 5 aqueous solution, 450 nm blue light, initial rate 0-300 s, followed at 461 nm
  kobs, zero order rate constant of blue light induced ligand loss: 1.7(2)×10^−8 M/s
[2]; pH 5 in water, blue light
  ligand dissociation: readily dissociates
[2]; 450 nm blue light, listed as [Ru(bpy)2(66′bpy(OH)2)2)]^2+
  rate of photodecomposition / ligand loss: zero
[2]; protected from light or exposed to 720 nm red light
  stability in acetonitrile solution: stable
[3]
  pKa1: 5.26
  pKa2: 7.27

## F[P-](F)(F)(F)(F)F.F[P-](F)(F)(F)(F)F.Oc1ccnc(-c2cc(O)ccn2)c1.[Ru+2].c1ccc(-c2ccccn2)nc1.c1ccc(-c2ccccn2)nc1 [[Ru(bpy)2(44′bpy(OH)2)]^2+, [Ru(bpy)2(44′bpy(OH)2)][PF6]2]
[1]; [4]
  HeLa cell viability, no irradiation: 91+/−4%
[1]; [5]
  IC50 (error): no significant effects
  IC50: > 100 µM
[2]; blue light
  photo-dissociation of ligand: no photo-dissociation
